{"source": "patent US9428458B2", "about": "“Substituted pyridoxine-lactam carboxylate-salts” (ALCOBRA LTD., priority 2008, dated 2016)", "origin": "cited, not measured here", "settings": "ca. 900 mg daily dose administered intravenously", "data": [{"substance": "pyridoxine L-2-pyrrolidone-5-carboxylate [metadoxine]", "values": [{"measurement": "side effects associated with the use of metadoxine", "value": "nausea and vomiting"}]}]}
